# According to publication PMC9775191, “A Subset Screen of the Compounds Australia Scaffold Library Identifies 7-Acylaminodibenzoxazepinones as Potent and Selective Hits for Anti-Giardia Drug Discovery” (Biomedicines, 2022):
# Test system: Escherichia coli (ATCC 25922)
# Test: Anti-bacterial activity assay
# Assay type: cell-based
# Settings: Escherichia coli, ATCC25922, 50 µM; read-out: Bacterial Inhibition E. coli
# Protocol: (§1) The activity of compounds against methicillin resistant Staphylococcus aureus (ATCC 43300), Escherichia coli (ATCC 25922), Acinetobacter baumannii (ATCC 19606) and Klebsiella pneumoniae (ATCC 700603) was assessed at 50 µM in duplicate as previously described. In brief, mid-log phase bacteria cultures were added to 384-well microtiter plate wells containing compound to final cell density of 5 × 10^5 CFU/mL in 50 µL. Plates were then covered and incubated at 37 °C for 18 h without shaking. Inhibition of bacterial growth was determined by measuring absorbance at 600 nm (Tecan M1000 Pro monochromator plate reader) and calculating percentage growth inhibition relative to the negative media and bacteria without inhibitors. Vancomycin hydrochloride (Sigma-Aldrich an affiliate of Merck KGaA, Darmstadt, Germany, #861987) and colistin sulfate (Sigma-Aldrich an affiliate of Merck KGaA, Darmstadt, Germany, C4461) were on each plate as positive controls for Gram-positive (S. aureus) and Gram-negative (E. coli, A. baumannii and K. pneumoniae) bacteria, respectively.
row,SMILES,inhibition at 50 µM
1,"Cc1nn(-c2ccccc2)c2sc(C(=O)N3CCCCC3)cc12 [SN00783575, O=C(N1CCCCC1)c1cc2c(C)nn(c3ccccc3)c2s1]",-4.12%
2,"CC(=O)Nc1ccc([N+](=O)[O-])c2nonc12 [SN00783960, CC(=O)Nc1ccc(N(=O)=O)c2nonc12]",12%
3,"COc1cccc(Nc2c3c(nc4ccccc24)CCC3)c1 [SN00784168, COc1cccc(c1)Nc1c2CCCc2nc2ccccc12]",3.98%

# Test system: Acinetobacter baumannii (ATCC 19606)
# Test: Anti-bacterial activity assay
# Assay type: cell-based
# Settings: ATCC19606, 50 µM
# Protocol: as §1
row,SMILES,inhibition at 50 µM
1,"Cc1nn(-c2ccccc2)c2sc(C(=O)N3CCCCC3)cc12 [SN00783575, O=C(N1CCCCC1)c1cc2c(C)nn(c3ccccc3)c2s1]",15.1%
2,"CC(=O)Nc1ccc([N+](=O)[O-])c2nonc12 [SN00783960, CC(=O)Nc1ccc(N(=O)=O)c2nonc12]",6.26%
3,"COc1cccc(Nc2c3c(nc4ccccc24)CCC3)c1 [SN00784168, COc1cccc(c1)Nc1c2CCCc2nc2ccccc12]",-2.44%

# Test system: Klebsiella pneumoniae (ATCC 700603)
# Test: Anti-bacterial activity assay
# Assay type: cell-based
# Settings: ATCC700603, 50 µM, read-out: Bacterial Inhibition K. pneumoniae
# Protocol: as §1
row,SMILES,inhibition at 50 µM
1,"Cc1nn(-c2ccccc2)c2sc(C(=O)N3CCCCC3)cc12 [SN00783575, O=C(N1CCCCC1)c1cc2c(C)nn(c3ccccc3)c2s1]",16.3%
2,"CC(=O)Nc1ccc([N+](=O)[O-])c2nonc12 [SN00783960, CC(=O)Nc1ccc(N(=O)=O)c2nonc12]",19.9%
3,"COc1cccc(Nc2c3c(nc4ccccc24)CCC3)c1 [SN00784168, COc1cccc(c1)Nc1c2CCCc2nc2ccccc12]",-3.07%

# Test system: methicillin resistant Staphylococcus aureus (ATCC 43300)
# Test: Anti-bacterial activity assay
# Assay type: cell-based
# Settings: Staphylococcus aureus, ATCC43300, 50 µM; read-out: Bacterial Inhibition S. aureus
# Protocol: as §1
row,SMILES,inhibition at 50 µM
1,"Cc1nn(-c2ccccc2)c2sc(C(=O)N3CCCCC3)cc12 [SN00783575, O=C(N1CCCCC1)c1cc2c(C)nn(c3ccccc3)c2s1]",6.02%
2,"CC(=O)Nc1ccc([N+](=O)[O-])c2nonc12 [SN00783960, CC(=O)Nc1ccc(N(=O)=O)c2nonc12]",95.3%
3,"COc1cccc(Nc2c3c(nc4ccccc24)CCC3)c1 [SN00784168, COc1cccc(c1)Nc1c2CCCc2nc2ccccc12]",-10.7%

# Test system: Neonatal foreskin fibroblast (NFF) cells
# Test: Mammalian cell cytotoxicity assay (sulforhodamine B)
# Assay type: cell-based, human
# Settings: Homo sapiens, NFF; 20 µM; ±SD
# Protocol: The selectivity of compounds of interest was assessed against NFF cells. Assays were performed using sulforhodamine B and included media only, negative (no compound, no DMSO), and vehicle (DMSO) controls as previously described. A chloroquine control plate was included in each assay. […] Repurchased SN00797640 was tested in dose–response from 100 µM against NFF. Selectivity indices (SI) were calculated by dividing mammalian cell IC50 values by G. duodenalis BRIS/91/HEPU/1279 IC50 values.
row,SMILES,inhibition at 20 µM
1,"Cc1nn(-c2ccccc2)c2sc(C(=O)N3CCCCC3)cc12 [SN00783575, O=C(N1CCCCC1)c1cc2c(C)nn(c3ccccc3)c2s1]",26.9 ± 2.5%
2,"CC(=O)Nc1ccc([N+](=O)[O-])c2nonc12 [SN00783960, CC(=O)Nc1ccc(N(=O)=O)c2nonc12]",98.5 ± 3.8%
3,"COc1cccc(Nc2c3c(nc4ccccc24)CCC3)c1 [SN00784168, COc1cccc(c1)Nc1c2CCCc2nc2ccccc12]",75.1 ± 0.3%

# Same assay, conditions: Table S2; NFF vs 48 h Giardia IC50
row,SMILES,SI (48h Gd)
1,"CC(=O)Nc1ccc([N+](=O)[O-])c2nonc12 [SN00783960, CC(=O)Nc1ccc(N(=O)=O)c2nonc12]",< 6
2,"COc1cccc(Nc2c3c(nc4ccccc24)CCC3)c1 [SN00784168, COc1cccc(c1)Nc1c2CCCc2nc2ccccc12]",< 4

# Test system: G. duodenalis BRIS/91/HEPU/1279
# Test: Giardia dose response assay, assemblage B
# Assay type: cell-based, Giardia duodenalis
# Settings: Giardia duodenalis, 24 h, read-out: G. duodenalis IC50 24h, Table S2; 24 h; ±SD; max 10 µM
# Protocol: In these assays, compounds were serially diluted (8–12-point doubling dilutions in technical duplicate) in DMSO control media, with all test wells inoculated with parasites (1.5 × 10^4 parasites for BRIS/91/HEPU/1279 and BRIS/91/HEPU/1279m1, or 3 × 10^3 parasites for BRIS/87/HEPU/713). […] All plates were sealed in culture chambers and gassed with 3% O2, 5% CO2 in N2 and incubated at 37 °C for 48 h, with parasites imaged and enumerated at 24 and 48 h. Growth inhibition was calculated as a percentage relative to vehicle controls minus any background as described above and IC50 values were determined using log-linear interpolation as previously described. […] Statistical comparison of IC50 values when required were performed using Student’s t-test.
row,SMILES,IC50
1,"Cc1nn(-c2ccccc2)c2sc(C(=O)N3CCCCC3)cc12 [SN00783575, O=C(N1CCCCC1)c1cc2c(C)nn(c3ccccc3)c2s1]",> 10 µM
2,"CC(=O)Nc1ccc([N+](=O)[O-])c2nonc12 [SN00783960, CC(=O)Nc1ccc(N(=O)=O)c2nonc12]",3.1 ± 2.29 µM
3,"COc1cccc(Nc2c3c(nc4ccccc24)CCC3)c1 [SN00784168, COc1cccc(c1)Nc1c2CCCc2nc2ccccc12]",> 10 µM

# Same assay, conditions: Giardia duodenalis, 48 h, Table S2; 48 h; ±SD; max 10 µM; read-out: G. duodenalis IC50 48h
row,SMILES,IC50
1,"Cc1nn(-c2ccccc2)c2sc(C(=O)N3CCCCC3)cc12 [SN00783575, O=C(N1CCCCC1)c1cc2c(C)nn(c3ccccc3)c2s1]",> 10 µM
2,"CC(=O)Nc1ccc([N+](=O)[O-])c2nonc12 [SN00783960, CC(=O)Nc1ccc(N(=O)=O)c2nonc12]",3.27 ± 4.08 µM
3,"COc1cccc(Nc2c3c(nc4ccccc24)CCC3)c1 [SN00784168, COc1cccc(c1)Nc1c2CCCc2nc2ccccc12]",4.58 ± 4.9 µM

# Test system: G. duodenalis BRIS/91/HEPU/1279
# Test: Primary Giardia screen at 10 µM (live-cell imaging, automated counting)
# Assay type: cell-based, Giardia duodenalis
# Settings: Giardia duodenalis, 24 h, first singlicate assay, read-out: % Inhibition n=1 24h
# Summary of the method: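 Percent growth versus 0.2% DMSO vehicle, background-corrected with media-only wells, is reported at 24 and 48 h from automated live-cell counts. Testing used 10 μM final in a 3% O2 atmosphere, with plate quality checked by Z' factor.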
row,SMILES,inhibition at 10 µM
1,"Cc1nn(-c2ccccc2)c2sc(C(=O)N3CCCCC3)cc12 [SN00783575, O=C(N1CCCCC1)c1cc2c(C)nn(c3ccccc3)c2s1]",34%
2,"CC(=O)Nc1ccc([N+](=O)[O-])c2nonc12 [SN00783960, CC(=O)Nc1ccc(N(=O)=O)c2nonc12]",53.9%
3,"COc1cccc(Nc2c3c(nc4ccccc24)CCC3)c1 [SN00784168, COc1cccc(c1)Nc1c2CCCc2nc2ccccc12]",27.7%

# Same assay, conditions: Giardia duodenalis, 24 h, re-assessment, read-out: % Inhibition n=2 24h
row,SMILES,inhibition at 10 µM
1,"Cc1nn(-c2ccccc2)c2sc(C(=O)N3CCCCC3)cc12 [SN00783575, O=C(N1CCCCC1)c1cc2c(C)nn(c3ccccc3)c2s1]",8.3%
2,"CC(=O)Nc1ccc([N+](=O)[O-])c2nonc12 [SN00783960, CC(=O)Nc1ccc(N(=O)=O)c2nonc12]",36.2%
3,"COc1cccc(Nc2c3c(nc4ccccc24)CCC3)c1 [SN00784168, COc1cccc(c1)Nc1c2CCCc2nc2ccccc12]",16.4%

# Same assay, conditions: Giardia duodenalis, 24 h, read-out: Average % Inhibition 24h
row,SMILES,inhibition at 10 µM
1,"Cc1nn(-c2ccccc2)c2sc(C(=O)N3CCCCC3)cc12 [SN00783575, O=C(N1CCCCC1)c1cc2c(C)nn(c3ccccc3)c2s1]",21.1%
2,"CC(=O)Nc1ccc([N+](=O)[O-])c2nonc12 [SN00783960, CC(=O)Nc1ccc(N(=O)=O)c2nonc12]",45.1%
3,"COc1cccc(Nc2c3c(nc4ccccc24)CCC3)c1 [SN00784168, COc1cccc(c1)Nc1c2CCCc2nc2ccccc12]",22%

# Same assay, conditions: Giardia duodenalis, 48 h, first singlicate assay, read-out: % Inhibition n=1 48h
row,SMILES,inhibition at 10 µM
1,"Cc1nn(-c2ccccc2)c2sc(C(=O)N3CCCCC3)cc12 [SN00783575, O=C(N1CCCCC1)c1cc2c(C)nn(c3ccccc3)c2s1]",63.8%
2,"CC(=O)Nc1ccc([N+](=O)[O-])c2nonc12 [SN00783960, CC(=O)Nc1ccc(N(=O)=O)c2nonc12]",66.5%
3,"COc1cccc(Nc2c3c(nc4ccccc24)CCC3)c1 [SN00784168, COc1cccc(c1)Nc1c2CCCc2nc2ccccc12]",63.3%

# Same assay, conditions: Giardia duodenalis, 48 h, re-assessment, read-out: % Inhibition n=2 48h
row,SMILES,inhibition at 10 µM
1,"Cc1nn(-c2ccccc2)c2sc(C(=O)N3CCCCC3)cc12 [SN00783575, O=C(N1CCCCC1)c1cc2c(C)nn(c3ccccc3)c2s1]",15.4%
2,"CC(=O)Nc1ccc([N+](=O)[O-])c2nonc12 [SN00783960, CC(=O)Nc1ccc(N(=O)=O)c2nonc12]",60.2%
3,"COc1cccc(Nc2c3c(nc4ccccc24)CCC3)c1 [SN00784168, COc1cccc(c1)Nc1c2CCCc2nc2ccccc12]",61.4%

# Same assay, conditions: Giardia duodenalis, 48 h, read-out: Average % Inhibition 48h
row,SMILES,inhibition at 10 µM
1,"Cc1nn(-c2ccccc2)c2sc(C(=O)N3CCCCC3)cc12 [SN00783575, O=C(N1CCCCC1)c1cc2c(C)nn(c3ccccc3)c2s1]",39.6%
2,"CC(=O)Nc1ccc([N+](=O)[O-])c2nonc12 [SN00783960, CC(=O)Nc1ccc(N(=O)=O)c2nonc12]",63.3%
3,"COc1cccc(Nc2c3c(nc4ccccc24)CCC3)c1 [SN00784168, COc1cccc(c1)Nc1c2CCCc2nc2ccccc12]",62.4%
